Results published in patent US7135578B2, “Iminocyclitol inhibitors of hexoaminidase and glycosidase” (The Scripps Research Institute, priority 1999, dated 2006).
Entries after “also recorded” stand apart in the source; their conditions may differ. Values belong to the compound of their own block, whether it stands above or below them.

Key:
β-N-acetylhexoaminidases = experiment: Intracellular β-N-acetylhexoaminidases activity (FIG. 12); format: cell-based
[1] = biological target: T1, β-N-acetylhexosaminidase A (Homo sapiens, UniProt P06865+P07686); experiment: Inhibition of β-N-acetylhexosaminidase A from human placenta; format: biochemical; set-up: Kinetic analysis of β-N-acetylhexosaminidase from human placenta; purchased Sigma Chemical Co. (St. Louis, Mo., USA); host or cells: human placenta; settings: β-N-acetylhexaoaminidases A from human placenta
T1 sequence (P06865 89-529): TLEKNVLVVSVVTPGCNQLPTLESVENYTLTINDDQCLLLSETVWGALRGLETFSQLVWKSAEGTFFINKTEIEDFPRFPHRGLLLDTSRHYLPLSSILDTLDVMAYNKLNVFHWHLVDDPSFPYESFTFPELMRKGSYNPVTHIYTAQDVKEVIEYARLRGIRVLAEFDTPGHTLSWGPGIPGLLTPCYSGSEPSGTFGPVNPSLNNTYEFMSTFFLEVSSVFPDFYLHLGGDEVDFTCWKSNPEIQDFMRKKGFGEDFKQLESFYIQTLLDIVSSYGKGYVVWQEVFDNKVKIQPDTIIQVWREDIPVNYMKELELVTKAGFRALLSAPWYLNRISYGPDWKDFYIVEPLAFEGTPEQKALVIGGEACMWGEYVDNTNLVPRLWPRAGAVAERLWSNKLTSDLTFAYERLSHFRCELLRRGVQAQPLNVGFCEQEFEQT
T1 sequence (P06865 23-74 limits assumed): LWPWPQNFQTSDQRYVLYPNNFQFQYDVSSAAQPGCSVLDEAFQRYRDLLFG
T1 sequence (P07686 315-556 limits assumed): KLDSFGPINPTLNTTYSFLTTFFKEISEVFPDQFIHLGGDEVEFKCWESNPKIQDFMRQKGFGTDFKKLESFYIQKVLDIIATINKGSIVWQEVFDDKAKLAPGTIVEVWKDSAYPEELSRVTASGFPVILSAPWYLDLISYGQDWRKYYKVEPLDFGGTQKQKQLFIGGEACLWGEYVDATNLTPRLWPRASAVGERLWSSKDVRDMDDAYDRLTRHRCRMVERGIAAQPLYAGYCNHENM
T1 sequence (P07686 122-311 limits assumed): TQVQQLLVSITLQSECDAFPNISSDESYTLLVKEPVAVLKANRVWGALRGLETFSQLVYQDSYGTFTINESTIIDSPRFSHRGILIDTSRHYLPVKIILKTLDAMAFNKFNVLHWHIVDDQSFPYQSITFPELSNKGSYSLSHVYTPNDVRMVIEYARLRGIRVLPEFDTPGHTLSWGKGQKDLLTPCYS
T1 sequence (P07686 50-107 limits assumed): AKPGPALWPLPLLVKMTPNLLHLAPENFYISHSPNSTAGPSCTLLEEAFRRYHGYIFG
Procedure: (§1) Condition of capillary zone electrophoresis: Assays were performed on a Waters Quanta 4000E capillary electrophoresis system, which was equipped with a 53 cm×75 μm fused i.d. silica capillary. Detection was carried out by on-column measurement of u.v. absorption at 405 nm at 7.5 cm from the cathode. The capillary used was pretreated or regenerated with 0.1 M KOH (2 min) and elution buffer before each injection. Samples were loaded by means of hydrostatic pressure at 10 cm height for 30 sec (ca 38.4 nl). Electrophoresis was performed at 20 kV using 50 mM sodium borate (pH 9.2 for β-N-Acetylglucosaminidase assays, pH 9.4 for β-glucosidase assays, pH 10.2 for α-glucosidase and β-N-acetylhexosaminidase assay) as electrolyte at a constant temperature of 37° C. Pherograms were recorded on Millennium 2010 system from Millipore Corp.
Kinetic analysis of β-N-acetylhexosaminidase from human placenta: Incubations were performed in a total volume of 20 μL. Unless otherwise stated, reaction mixtures contained 100 mM citrate buffer (pH 4.5), various amount of p-NP-GlcNAc (0.1–1.1 mM) and various amount of inhibitor with 3.35 mU of β-N-acetylhexosaminidase A and 1.76 mU of β-N-acetylhexosaminidase P. After preincubation for 10 min at 37° C., the reaction was started by the addition of β-N-Acetylglucosaminidase and the reaction mixture was incubated for 15 min at 37° C. […]

GAGs = experiment: Whole cell assay of GAG concentration; format: cell-based
[2] = biological target: β-N-acetylglucosaminidase; experiment: Inhibition of β-N-acetylglucosaminidase, kinetic analysis by CZE; format: biochemical; settings: β-N-acetylglucosaminidase from bovine kidney, substrate PNP-GlcNAc, replot of Lineweaver-Burk slopes
Procedure: (§2) Initially, the total volume of assay solution was reduced because this is the only way to reduce the amount of enzyme and substrate used in the assay. The 96-well microtiter plate with a round bottom was used for the assay, and each well was sealed with tape. Thus, the assay was examined and carried out in a total volume of as little as 20 μL containing 1.76 mU of a glycosidase such as β-N-acetylhexosaminidase P. The electrophoresis was carried out using 50 mM borate buffer (pH 9.2˜10.2) as the electrolyte and the progress was monitored at 37° C. The injected volume of approximately 38.4 nL of a reaction mixture contained as little as 3.8 pmol of the substrate p-nitrophenyl (PNP) glycoside, thus the amount of PNP detected was less than 10^−12 mol. The peak corresponding to the p-nitrophenol, which appeared at around 6.5 min. in these conditions, was monitored at 405 nm.
The inhibition studies of compounds 1–9 against α- and β-glucosidases (from Saccharomyces sp. and sweet almond, respectively) were carried out. PNP-glycosides of the parent sugars were used as the substrates throughout the assay. The apparent Km and Vmax values for each substrate were calculated from the double-reciplocal plot of standard 1/v −1/[substrate] curve.^18 The Ki values were determined from a replot of the slopes of Lineweaver-Burk plots vs. the inhibitor concentrations. […]

[3] = biological target: T1, β-N-acetylhexosaminidase A; experiment: β-N-acetylhexosaminidase A inhibition with MUG and MUGS substrates (FIGS. 13A, 13B); format: biochemical
α-glucosidase = experiment: Inhibition of α-glucosidase, kinetic analysis by capillary zone electrophoresis; format: biochemical; settings: Saccharomyces sp. enzyme, CZE
Procedure: as §2
(§3) The inhibition studies of compounds 1–9 against α- and β-glucosidases (from Saccharomyces sp. and sweet almond, respectively) were carried out. PNP-glycosides of the parent sugars were used as the substrates throughout the assay. The apparent Km and Vmax values for each substrate were calculated from the double-reciplocal plot of standard 1/v −1/[substrate] curve.^18 The Ki values were determined from a replot of the slopes of Lineweaver-Burk plots vs. the inhibitor concentrations.
Kinetic analysis of α-glucosidase: To a 1-mL disposable cuvette was added 950 μL of 0.1 M phosphate buffer (pH 7.0) solution, 20 μL of inhibitor solution, and 20 μL of 20 mM p-nitrophenyl-α-D-glucopyranoside solution. The solution was well mixed and warmed at 37° C. for 5 min, then 20 μL of the enzyme solution in 10 mM phosphate buffer (pH 7.0) containing 0.2% of BSA was added. The reaction was monitored at 400 nm on Beckmann DU-70 spectrophotometer for 15 seconds, and the initial rate of hydrolysis was calculated. The same procedure was repeated with three other substrate concentrations. After the initial rates were accumulated, the corresponding Lineweaver-Burk plot at that inhibitor concentration was constructed.
as §1, with “Electrophoresis was performed at 20 kV using 50 mM sodium borate (pH 9.2 for β-N-Acetylglucosaminidase assays, pH 9.4 for β-glucosidase assays, pH 10.2 for α-glucosidase and β-N-acetylhexosaminidase assay) as electrolyte at a constant temperature of 37° C.” left out, “Corp. […]” for “Corp.”

β-glucosidase = experiment: Inhibition of β-glucosidase, kinetic analysis by capillary zone electrophoresis; format: biochemical; settings: sweet almond enzyme, CZE
Procedure: as §2, §3
Kinetic analyssis of β-glucosidase: To a 1-mL disposable cuvette was added 950 μL of 0.1 M acetate buffer (pH 5.0) solution, 20 μL of inhibitor solution, and 20 μL of 20 mM p-nitrophenyl-β-D-glucopyranoside solution. The solution was well mixed and warmed at 37° C. for 5 min, then 20 μL of the enzyme solution, which was dissolved in ice-cold Tris-HCl buffer (pH 7.8) and diluted with 10 mM phosphate buffer (pH 7.0) containing 0.2% of BSA, was added. The reaction was monitored at 400 nm on a Beckmann DU-70 spectrophotometer for 15 seconds, and the initial rate of hydrolysis was calculated. The same procedure was repeated with three other substrate concentrations. After the initial rates were accumulated, the corresponding Lineweaver-Burk plot at that inhibitor concentration was constructed.
as §1, with “Electrophoresis was performed at 20 kV using 50 mM sodium borate (pH 9.2 for β-N-Acetylglucosaminidase assays, pH 9.4 for β-glucosidase assays, pH 10.2 for α-glucosidase and β-N-acetylhexosaminidase assay) as electrolyte at a constant temperature of 37° C.” left out, “Corp. […]” for “Corp.”

[4] = biological target: α-glucosidase from baker's yeast; settings: reported by Watson et al.; cited from earlier work
[5] = biological target: β-glucosidease from Almond; settings: β-glucosidase from Almond, reported by Watson et al.; cited from earlier work

inhibitory activity against α-glucosidase (α-glucosidase): weak inhibitor | inhibitory activity against β-glucosidase (β-glucosidase): weak inhibitor
Compound: OC[C@H](O)[C@H]1N[C@H](CO)[C@@H](O)[C@H]1O [Compound 1, (2R,3S,4R,5R,1′R)-5-hydroxymethyl-3,4-dihydroxy-2-(1′,2′-dihydroxy)ethyl-pyrrolidine]

inhibitory activity against α-glucosidase (α-glucosidase): identical inhibitory activity to 2
Compound: CC(=O)NC[C@@H](O)[C@H]1N[C@H](CO)[C@@H](O)[C@@H]1O [Compound 6]
inhibitory activity against β-glucosidase (β-glucosidase): potent inhibitors; also recorded: identical inhibitory activity to 2

inhibitory activity against α-glucosidase (α-glucosidase): as effective as 2
Compound: OC[C@H]1N[C@H](CNC[C@H]2N[C@H](CO)[C@@H](O)[C@@H]2O)[C@@H](O)[C@@H]1O [Compound 9, N,N-di-{[(2R,3R,4R,5R)-(3,4-hydroxy-5-hydroxymethyl)-pyrrolidine]methyl} amine]
inhibitory activity against β-glucosidase (β-glucosidase): inhibitory activity at the same level as 1 and 7

The remaining lines, values behind:

Compound: CC(=O)NC[C@@H]1[C@@H](O)[C@H](O)[C@@H](CO)N1C [Compound 4, (2R,3R,4R,5R)-N-Methyl-(2-acetamidomethyl-3,4-dihydroxy-5-hydroxymethyl)-pyrrolidine]
intracellular β-N-acetylhexaoaminidases activity (β-N-acetylhexoaminidases): dramatically decreased | Ki [1]: 0.024 µM | GAG's intracellular concentration (GAGs): increase | GAGs' extracellular concentration (GAGs): decrease | Ki [2]: 0.11 µM

Compound: CC1=N[C@@H]2[C@@H](O)[C@H](O)[C@@H](CO)O[C@@H]2S1 [Compound 107, NAG-thioazoline]
inhibition activity towards MUGS compared with MUG [3]: higher inhibition activity to MUG than to MUGS

Compound: OC[C@H](O)[C@@H]1N[C@H](CO)[C@@H](O)[C@@H]1O [Compound 2, (1′R,2S,3R,4R,5R)-3,4-dihydroxy-2-[1′,2′-dihydroxy-ethyl]-5-hydroxymethyl-pyrrolidine]
Ki [4]: 85000 µM | Ki [5]: 4000 µM | inhibitory activity against α-glucosidase (α-glucosidase): potent inhibitory activities | inhibitory activity against β-glucosidase (β-glucosidase): potent inhibitory activities

Compound: Sulfated NAG-thiozoline [Compound 108]
inhibition activity towards MUGS compared with MUG [3]: higher inhibition activity towards the 6-sulfate-4-methyl-umbelliferyl-β-D-N-acetylglucosamine (MUGS) than to 4-methyl-umbelliferyl-β-D-N-acetylglucosamine (MUG)
